The source of these data is US20240116832A1, “INHIBITORS OF SOIL NITRIFICATION AND PROCESSES TO PREVENT SAME” (Tessenderlo Group NV, priority 2019, published 2024).

The subject of the experiment is soil nitrification: conversion of ammonium-N(NH4+) into nitrate-N(NO3−), Tujunga loamy sand. Conditions: for nitrification inhibition (slowing the conversion of ammonium-N into nitrate-N), in words: text on Experiments 1 and 2.

Source text: Two soils were used in this experiment, a Tujunga loamy sand (thermic Typic Xeropsamments) collected in Dinuba, California along with a Clarion fine loam (mesic Typic Hapludolls), collected in Boone, Iowa.
Each soil was collected by hand from the top 15 mm of the soil profile and allowed to air-dry. Both soils were hand screened to remove large clumps and rocks that may have interfered with the experiment. Soil samples were taken before the start of the experiment and analyzed to assess the initial nutrient content and pH of the soil.
The experiments were made up of numerous individual plastic containers that each represented one (1) replicate of each fertilizer treatment and soil. All experiments were arranged as a completely randomized design consisting of 12-20 fertilizer treatments, two soils, with six replicates.
To begin the experiment, 200 g of the dried and screened soil was added to a 709 mL sealable plastic container. Distilled water was added to each container to bring the moisture level up to what would be considered optimal field moisture. It was important to determine this for each soil separately to ensure neither soil was too dry or too moist. This volume ranged from 15-25 ml per container with the Clarion soil being the highest. Once the appropriate amount of water was applied to each container, they were thoroughly stirred to ensure uniform mixing and to eliminate any clumps.
After the soil containers were filled and moistened, the individual liquid fertilizer treatments were prepared in a 100 ml Erlenmeyer flask. All treatments were applied as liquids to ensure uniform mixing and accurate applications. For some of the treatments a 20%-N urea solution was used as the primary nitrogen source. […]
All fertilizer treatments were made to the soil surface in each container using a micropipette at a nitrogen rate of 134.7 kg ha^−1 calculated on the surface area of each container which equals 125.8 cm^2. […]
Soil samples were initially taken at one (1) day after treatment (DAT). […] The difference in mass is recorded and used in later calculations. […]

Consider `N.N.O=S(=O)(O)O` [ammonium sulfates, ammonium sulfate], for which the “nitrification inhibition (slowing the conversion of ammonium-N into nitrate-N), in words” value is “did not work”.

As for `O=S([O-])O.[K+]` [potassium bisulfite], the “nitrification inhibition (slowing the conversion of ammonium-N into nitrate-N), in words” value is “did not work”.

`NC(N)=O` [unprotected urea, Urea]: the “"nitrate levels" (nitrite+nitrate levels) in the soil” value (after 8 weeks) was at least 300 ppm.
